For one molecule, IC50 results are on record in ChEMBL document CHEMBL1157413, “Pyronane monoterpenoids from the fruit of Gardenia jasminoides” (J Nat Prod, 2008).

The target in this experiment is T1, Tyrosinase (Agaricus bisporus, UniProt O42713).
T1 sequence (O42713 whole entry): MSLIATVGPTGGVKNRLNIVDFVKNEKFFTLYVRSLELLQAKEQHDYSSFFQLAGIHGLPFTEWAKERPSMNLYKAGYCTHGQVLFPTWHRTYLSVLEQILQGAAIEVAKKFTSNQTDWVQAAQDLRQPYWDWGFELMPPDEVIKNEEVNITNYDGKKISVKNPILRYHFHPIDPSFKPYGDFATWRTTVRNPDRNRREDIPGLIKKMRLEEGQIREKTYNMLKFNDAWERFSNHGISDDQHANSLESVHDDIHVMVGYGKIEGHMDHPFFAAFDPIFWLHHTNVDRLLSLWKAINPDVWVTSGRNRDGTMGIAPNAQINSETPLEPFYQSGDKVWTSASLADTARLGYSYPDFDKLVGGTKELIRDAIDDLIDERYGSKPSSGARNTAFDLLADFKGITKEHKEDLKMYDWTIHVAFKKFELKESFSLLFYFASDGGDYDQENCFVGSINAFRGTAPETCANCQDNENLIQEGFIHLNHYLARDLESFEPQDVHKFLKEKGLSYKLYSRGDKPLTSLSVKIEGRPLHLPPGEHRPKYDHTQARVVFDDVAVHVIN
Description: Inhibition of mushroom tyrosinase activity after 10 mins

Regarding `CC1(C)CC(=O)C=C(CO)[C@H]1CO` [JASMINODIOL], the IC50 (usually the concentration that inhibits the measured activity by half) came out at 2.2 mM.
